Among the data in ChEMBL document CHEMBL3120145, “Interaction kinetics of liposome-incorporated unsaturated fatty acids with fatty acid-binding protein 3 by surface plasmon resonance” (Bioorg Med Chem, 2014) are Kd values, retold here.

As a reminder, the pKd is the Kd on a negative log10 scale, so that one unit is a factor of ten. A lower pKd goes with a large Kd.

In assay [1] the target is T1, Fatty acid-binding protein, heart (Homo sapiens, UniProt P05413). The assay is described as follows: Binding affinity to human FABP3 expressed in Escherichia coli BL21 (DE3) in DMPC liposomes by surface plasmon resonance analysis. Background: Surface plasmon resonance follows binding to a sensor surface in real time, without labels.
The target in assay [2] is T1, Fatty acid-binding protein, heart. The assay is described as follows: Binding affinity to human FABP3 expressed in Escherichia coli BL21 (DE3) at 60 uM by surface plasmon resonance analysis.
Assay [3] has the same target. The assay is described as follows: Binding affinity to human FABP3 expressed in Escherichia coli BL21 (DE3) at 10 uM in DMPC liposomes by surface plasmon resonance analysis.

Molecules are shown by their SMILES. pKd: −log10 of the molar value.

T1 sequence (P05413 whole entry): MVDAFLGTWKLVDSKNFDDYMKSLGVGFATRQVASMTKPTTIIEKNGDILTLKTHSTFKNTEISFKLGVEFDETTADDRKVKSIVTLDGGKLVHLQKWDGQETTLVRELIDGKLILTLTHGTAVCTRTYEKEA

As to `CC/C=C\C/C=C\C/C=C\CCCCCCCC(=O)O`, the pKd in assay [1] is 8.56. In assay [2], `CCCCCCCCCCCCCC(=O)OC[C@H](COP(=O)(O)OCC[N+](C)(C)C)OC(=O)CCCCCCCCCCCCC` had a pKd of 8.44. Consider `CCCCCCCCCCC/C=C\CCCCC(=O)O`, for which the pKd was 6.40 in assay [3] and 4.27 in assay [2].
